# Experiments:
# [1] = tested on: Artemia salina; design: method as in PMID 26039736; settings: cited from earlier work
# [2] = tested on: prostate cancer cells; test: MTT assay, mean IC50 in cancer cell panel and selectivity index; type: cell-based, human
# From the text: (§1) To examine the anticancer potential and selectivity of NB, we used a panel of six human prostate cancer cell lines, harboring different levels of treatment resistance to representatively reflect the heterogeneity of the disease. […] Additionally, four human noncancer cells lines were utilized in order to determine the selectivity of NB towards prostate cancer cells, i.e., prostate noncancer PNT2 and RWPE-1 cells, human embryonic kidney HEK 293T cells, and human fibroblasts MRC-9. The different cell lines were treated with NB and the cell viability was examined using MTT assay (Figure 1). The mean IC50 of NB and docetaxel (used as a reference substance) in noncancerous cell lines was divided by the mean IC50 in the prostate cancer cell lines to determine the selectivity index (SI).
# The MTT assay was used to monitor the effect of the drugs on cell viability in terms of metabolic activity, as previously reported. First, preincubation of the cells in 96-well plates (6 × 10^3 cells/well in 100 μL/well) was performed overnight in the correspondent culture medium. Next, the medium was exchanged for fresh medium containing the investigated compounds or a vehicle (100 μL/well). Cells were then incubated for 48 h, unless otherwise stated. Then, 10 μL/well of 3-(4,5-dimethylthiazol-2-yl)-2,5-diphenyltetrazolium bromide reagent (MTT, 5 mg/mL) were added. After 2–4 h of additional incubation the media was removed, and the plates were dried. Finally, 50 μL/well of DMSO were added to solve the formed formazan crystals produced by the metabolic active cells and Infinite F200PRO reader (TECAN, Männedorf, Switzerland) was used to measure the cell viability. The results were proceeded with a GraphPad Prism software v.9.1.1 (GraphPad Software, San Diego, CA, USA). Cells treated with the solvent of the drugs alone were used as a control (100% alive cells). The effect of the drugs on cell viability is represented as IC50.
# [3] = tested on: PC3-DR cells; test: Drug combination study NB with docetaxel, MTT assay, SynergyFinder 2.0; type: cell-based; settings: Homo sapiens, 24 h
# Experimental: Thus, drug-resistant PC3-DR cells were treated with docetaxel in combination with NB (Figure 9). Potential synergism between NB and docetaxel was measured by the Chou–Talalay method as described before.
# Figure 9 Combinational treatment on PC3-DR cells with NB and docetaxel. […] MTT assay was used to examine cellular viability. Number of replicates n = 3. (A) The heatmap represents cytotoxicity (viability inhibition) of the individual drugs or their combinations. (B,C) To calculate and visualize in 2D (B) or 3D (C) the effect of the drug combination (synergism/additive effect/antagonism), the SynergyFinder v. 2.0 software (Network Pharmacology for Precision Medicine in the Research Program of System Oncology, Faculty of Medicine at University of Helsinki, Helsinki, Finland) and a ZIP reference model were used. Green regions indicate antagonism, white regions refer to additive effect, and red regions indicate synergism.
# The experiments were carried out as previously reported. […] 22Rv1 cells (6 × 10^3 cells/well in 96-well plates) were simultaneously treated with NB and docetaxel; or pretreated with MAPK inhibitors for 1 h following treatment with NB in the total media volume of 100 µL/well. Following 24 h of incubation, the viability of the cells treated with individual drugs as well as their combinations was determined using MTT assay. […] Red areas (positive δ-values) and green areas (negative δ-values) indicate synergism and antagonism, respectively.
# [4] = tested on: noncancer cells; test: MTT assay, mean IC50 in noncancer cell panel; type: cell-based; settings: Homo sapiens, mean over PNT2, RWPE-1, HEK293, MRC-9, 48 h
# From the text: as §1
# The MTT assay was used to monitor the effect of the drugs on cell viability in terms of metabolic activity, as previously reported. First, preincubation of the cells in 96-well plates (6 × 10^3 cells/well in 100 μL/well) was performed overnight in the correspondent culture medium. Next, the medium was exchanged for fresh medium containing the investigated compounds or a vehicle (100 μL/well). […] Finally, 50 μL/well of DMSO were added to solve the formed formazan crystals produced by the metabolic active cells and Infinite F200PRO reader (TECAN, Männedorf, Switzerland) was used to measure the cell viability. […]
# [5] = tested on: splenocytes; design: method as in PMID 27355960; settings: cited from earlier work
structure (smiles),measurement,setting,value
"COc1ccc(C2SSC34CC5(O)C(Cl)C=CC(O)C5ON3C(=O)C2N(C)C4=O)c(O)c1OC (stereo not drawn) [NB, N-methylpretrichodermamide B]",LD50,[1],4.8 µM
same,IC50,"[2]; Homo sapiens, mean over PC3, PC3-DR, DU145, 22Rv1, VCaP, LNCaP, 48 h, MTT",6.46 µM
same,Selectivity Index (SI),[2]; [mean IC50 in noncancer cells]/[mean IC50 in cancer cells],2.4
same,inhibition at 0.22 µM,[3],9.85%
same,inhibition at 0.67 µM,[3],15.5%
same,inhibition at 2 µM,[3],14.3%
same,inhibition at 6 µM,[3],17.2%
same,IC50,[4],15.5 µM
same,"ID50, cytotoxic activity in splenocytes",[5],62.1 µM

# Reference: publication PMC9605374 (Marine Drugs, 2022)
